Bounds are passed on as bounds.

The source of these data is US20250170130A1, “MODULATORS OF MYC FAMILY PROTO-ONCOGENE PROTEIN” (Nalo Therapeutics, priority 2022, published 2025).

For assay [1], the target named is T1, MycC (Homo sapiens, UniProt P01106).
T1 construct: endogenous in cells; host or cells: L363
Put plainly: Degradation of MycC protein in L363 cells, JESS/Western blot of lysates. The class given is cell-based. As to conditions: L-363, 24 h, L-363 cells, 24 h; for Dmax at 0.5 µM: read-out: % Degradation of MycC (L-363) 24 h, 0.5 μM; for Dmax at 1 µM: read-out: % Degradation of MycC (L-363) 24 h, 1 μM; for Dmax at 3 µM: read-out: % Degradation of MycC (L-363) 24 h, 3 μM; for Dmax at 6 µM: read-out: % Degradation of MycC (L-363) 24 h, 6 μM. As to the method:
For L363 cells (suspension), 1E6 cells were plated into each well of a 6 well plate. For SK-N-BE(2) cells (adherent), 5E5 cells were plated into each well of a 6 well dish. […] All compounds were diluted to 10 mM in DMSO. Cells were treated with the compound for 24 hrs, then for both cell types, media containing cells were removed from wells into a 15 ml centrifuge tube, and remaining adherent SK-N-BE(2) cells were also scraped from the wells into the appropriate tubes. Tubes were centrifuged, cells were washed with PBS then re-centrifuged to pellet cells. A RIPA buffer cocktail was added to the cells on ice for 5 mins. Cell lysates were clarified by centrifugation and stored at −80 degrees until required. BCA assay was performed on each lysate to determine the protein concentration.
(§1) Once an appropriate lysate concentration and antibody concentration was determined, samples were screened in the JESS technology (Protein Simple, San Jose, CA—https://www.proteinsimple.com/jess.html).
(§2) Target protein antibodies (n-myc and c-myc) were detected in the chemi-luminescence channel and loading controls (tubulin and GAPDH) were detected using a Near Infra Red (NIR) labeled secondary antibody.
For SK-N-EB2 adherent cells, 5E5 cells in 1.9 mls media were plated into 6 well dishes and incubated for 24 hrs. […] Cells were scrapped off the plate, centrifuged, washed with PBS, centrifuged, then a RIPA buffer cocktail added to the cells (100 ul), centrifuged and stored at −80 for later analysis. For L363 suspension cells, 1E6 cells were plated into […] (950 ul media) and incubated for 24 hrs. […] Cells were aspirated into tubes, centrifuged, washed with PBS, centrifuged, then a RIPA buffer cocktail added to the cells (100 ul), centrifuged and stored at −80 for later analysis.
(§3) For Western blot, a BCA (total protein) assay was run on all samples, these were then run in batches of 5 compounds plus control (DMSO) on each Western blot run—n-myc and c-myc were run in separate experiments in the chemiluminescence channel. Both tubulin and GAPDH were run as loading controls in all lanes in the near infra red channel.

The target in assay [2] is T2, MycN (Homo sapiens, UniProt P04198).
T2 construct: endogenous in cells; host or cells: SK-N-BE(2)
T2 sequence (P04198 1-464): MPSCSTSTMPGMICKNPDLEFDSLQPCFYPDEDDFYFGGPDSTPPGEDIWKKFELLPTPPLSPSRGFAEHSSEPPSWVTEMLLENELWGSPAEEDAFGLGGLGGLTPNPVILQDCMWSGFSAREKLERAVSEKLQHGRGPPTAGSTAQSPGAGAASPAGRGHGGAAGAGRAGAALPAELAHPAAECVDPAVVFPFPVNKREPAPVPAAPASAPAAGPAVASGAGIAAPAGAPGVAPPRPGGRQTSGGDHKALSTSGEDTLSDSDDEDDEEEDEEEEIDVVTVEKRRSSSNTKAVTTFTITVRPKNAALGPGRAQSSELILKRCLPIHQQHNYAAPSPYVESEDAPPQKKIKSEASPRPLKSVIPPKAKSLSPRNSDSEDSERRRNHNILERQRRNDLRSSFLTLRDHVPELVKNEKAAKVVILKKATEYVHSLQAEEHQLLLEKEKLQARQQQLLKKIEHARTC
Put plainly: Degradation of MycN protein in SK-N-BE(2) cells, JESS/Western blot of lysates. The conditions noted are these: SKNBE2, 24 h, SKNBE2 cells, 24 h; for Dmax at 0.5 µM: read-out: % Degradation of MycN (SKNBE2) 24 h, 0.5 μM; for Dmax at 1 µM: read-out: % Degradation of MycN (SKNBE2) 24 h, 1 μM; for Dmax at 3 µM: read-out: % Degradation of MycN (SKNBE2) 24 h, 3 μM; for Dmax at 6 µM: read-out: % Degradation of MycN (SKNBE2) 24 h, 6 μM. It counts as cell-based. As to the method:
For L363 cells (suspension), 1E6 cells were plated into each well of a 6 well plate. For SK-N-BE(2) cells (adherent), 5E5 cells were plated into each well of a 6 well dish. Cells were cultured for 24 hrs then treated with exemplary compounds at […] final assay concentrations plus DMSO control. All compounds were diluted to 10 mM in DMSO. Cells were treated with the compound for 24 hrs, then for both cell types, media containing cells were removed from wells into a 15 ml centrifuge tube, and remaining adherent SK-N-BE(2) cells were also scraped from the wells into the appropriate tubes. Tubes were centrifuged, cells were washed with PBS then re-centrifuged to pellet cells. A RIPA buffer cocktail was added to the cells on ice for 5 mins. Cell lysates were clarified by centrifugation and stored at −80 degrees until required. BCA assay was performed on each lysate to determine the protein concentration.
as §1, §2
For SK-N-EB2 adherent cells, 5E5 cells in 1.9 mls media were plated into 6 well dishes and incubated for 24 hrs. Exemplary compounds were added (100 ul, 1 in 20 dilution in media) to each well (final assay concentration 6, 3, 1 and […]) together with DMSO control wells and incubated for 24 hrs. Cells were scrapped off the plate, centrifuged, washed with PBS, centrifuged, then a RIPA buffer cocktail added to the cells (100 ul), centrifuged and stored at −80 for later analysis. For L363 suspension cells, 1E6 cells were plated into 24 well dishes (950 ul media) and incubated for 24 hrs. Exemplary compounds were added (50 ul, 1 in 20 dilution in media) to each well (final assay concentration 6, 3, 1 and […]) together with DMSO control wells and incubated for 24 hrs. Cells were aspirated into tubes, centrifuged, washed with PBS, centrifuged, then a RIPA buffer cocktail added to the cells (100 ul), centrifuged and stored at −80 for later analysis.
as §3
(In general: In western blotting, separated proteins are transferred to a membrane and probed.)

T1 sequence (P01106 whole entry): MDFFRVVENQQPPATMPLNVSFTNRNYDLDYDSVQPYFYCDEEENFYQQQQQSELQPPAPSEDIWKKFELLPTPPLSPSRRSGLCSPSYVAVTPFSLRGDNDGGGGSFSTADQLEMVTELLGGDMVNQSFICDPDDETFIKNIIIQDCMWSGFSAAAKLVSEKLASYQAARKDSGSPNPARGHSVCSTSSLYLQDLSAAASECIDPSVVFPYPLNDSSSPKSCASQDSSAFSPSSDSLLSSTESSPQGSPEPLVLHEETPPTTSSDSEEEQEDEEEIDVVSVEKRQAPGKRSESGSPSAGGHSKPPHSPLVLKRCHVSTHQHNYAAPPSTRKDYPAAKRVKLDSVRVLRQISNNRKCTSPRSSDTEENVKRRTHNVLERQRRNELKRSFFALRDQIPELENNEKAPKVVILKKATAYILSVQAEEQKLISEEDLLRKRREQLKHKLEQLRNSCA

With `c1cc(Nc2cc(C3CC3)[nH]n2)nc(N2CCC3(CNC3)C2)n1` [Compound 2, N-(5-cyclopropyl-1H-pyrazol-3-yl)-2-(2,6-diazaspiro[3.4]octan-6-yl)pyrimidin-4-amine], in assay [1], the Dmax at 0.5 µM is 20 to 49%, the Dmax at 1 µM was in the range of 20 to 49%, the Dmax at 3 µM lay in the range of 20 to 49% and the Dmax at 6 µM is 20 to 49%. In addition, in assay [2], the Dmax at 0.5 µM is less than 20%, the Dmax at 1 µM was less than 20%, the Dmax at 3 µM is less than 20% and the Dmax at 6 µM is 50 to 79%.

`CN1CC2(CCN(c3nccc(Nc4cc(C5CC5)[nH]n4)n3)C2)C1` [Compound 3, N-(5-cyclopropyl-1H-pyrazol-3-yl)-2-(2-methyl-2,6-diazaspiro[3.4]octan-6-yl)pyrimidin-4-amine]: in assay [1], the Dmax at 0.5 µM was less than 20%, the Dmax at 1 µM was in the range of 20 to 49% and the Dmax at 6 µM was 80 to 100%. Moreover, in assay [2], the Dmax at 0.5 µM was less than 20%, the Dmax at 1 µM is less than 20%, the Dmax at 3 µM is less than 20% and the Dmax at 6 µM is 50 to 79%.

On to `CN1CC2(C1)CN(c1nccc(Nc3cc(C4CC4)[nH]n3)n1)C2` [Compound 4, N-(5-Cyclopropyl-1H-pyrazol-3-yl)-2-(6-methyl-2,6-diazaspiro[3.3]heptan-2-yl)pyrimidin-4-amine], for which, in assay [1], the Dmax at 0.5 µM was less than 20%, the Dmax at 1 µM was in the range of 20 to 49%, the Dmax at 3 µM was in the range of 80 to 100% and the Dmax at 6 µM lay in the range of 80 to 100%. Further, in assay [2], the Dmax at 0.5 µM is less than 20%, the Dmax at 1 µM was in the range of 20 to 49%, the Dmax at 3 µM was in the range of 20 to 49% and the Dmax at 6 µM was in the range of 20 to 49%.

On to `CN(C)CC1CCN(c2nccc(Nc3cc(C4CC4)[nH]n3)n2)CC1` [Compound 5, N-(5-Cyclopropyl-1H-pyrazol-3-yl)-2-(4-((dimethylamino)methyl)piperidin-1-yl)pyrimidin-4-amine], for which, in assay [1], the Dmax at 0.5 µM was less than 20%, the Dmax at 1 µM was less than 20%, the Dmax at 3 µM fell in the range of 20 to 49% and the Dmax at 6 µM fell in the range of 20 to 49%. Further, the Dmax at 6 µM in assay [2] lay within 20 to 49%.

For `c1cc(Nc2cc(C3CC3)[nH]n2)nc(N2CC3(CNC3)C2)n1` [Compound 6, N-(5-Cyclopropyl-1H-pyrazol-3-yl)-2-(2,6-diazaspiro[3.3]heptan-2-yl)pyrimidin-4-amine], in assay [1], the Dmax at 0.5 µM was less than 20%, the Dmax at 1 µM lay within 20 to 49%, the Dmax at 3 µM was less than 20% and the Dmax at 6 µM is 20 to 49%. Moreover, in assay [2], the Dmax at 0.5 µM is less than 20%, the Dmax at 1 µM is less than 20%, the Dmax at 3 µM is less than 20% and the Dmax at 6 µM was less than 20%.

On to `CNC[C@H]1CCN(c2nccc(Nc3cc(C4CC4)[nH]n3)n2)C1` [Compound 7, (R)—N-(5-Cyclopropyl-1H-pyrazol-3-yl)-2-(3-((methylamino)methyl)pyrrolidin-1-yl)pyrimidin-4-amine], for which the Dmax at 1 µM in assay [1] was less than 20%. Moreover, in assay [2], the Dmax at 0.5 µM was less than 20%, the Dmax at 1 µM is less than 20%, the Dmax at 3 µM lay in the range of 50 to 79% and the Dmax at 6 µM lay within 80 to 100%.

For `CN[C@H]1CCN(c2nccc(Nc3cc(C4CC4)[nH]n3)n2)C1` [Compound 8, (S)—N-(5-cyclopropyl-1H-pyrazol-3-yl)-2-(3-(methylamino)pyrrolidin-1-yl)pyrimidin-4-amine], in assay [1], the Dmax at 0.5 µM is less than 20%, the Dmax at 1 µM was less than 20% and the Dmax at 3 µM was 20 to 49%. Besides, in assay [2], the Dmax at 3 µM is less than 20%.

As for `CN(C)[C@H]1CCN(c2nccc(Nc3cc(C4CC4)[nH]n3)n2)C1` [Compound 9, (S)—N-(5-Cyclopropyl-1H-pyrazol-3-yl)-2-(3-(dimethylamino)pyrrolidin-1-yl)pyrimidin-4-amine], in assay [1], the Dmax at 0.5 µM fell in the range of 20 to 49%, the Dmax at 1 µM was 20 to 49%, the Dmax at 3 µM lay within 20 to 49% and the Dmax at 6 µM lay within 80 to 100%. In assay [2], the Dmax at 0.5 µM fell in the range of 20 to 49%, the Dmax at 1 µM lay within 20 to 49%, the Dmax at 3 µM is less than 20% and the Dmax at 6 µM is less than 20%.

Turning to `NCC1CCN(c2nccc(Nc3cc(C4CC4)[nH]n3)n2)CC1` [Compound 10, 2-(4-(aminomethyl)piperidin-1-yl)-N-(5-cyclopropyl-1H-pyrazol-3-yl)pyrimidin-4-amine], in assay [1], the Dmax at 0.5 µM is less than 20%, the Dmax at 1 µM is less than 20% and the Dmax at 6 µM lay in the range of 20 to 49%. In assay [2], the Dmax at 1 µM was 20 to 49%, the Dmax at 3 µM lay within 80 to 100% and the Dmax at 6 µM lay in the range of 80 to 100%.

For `NC[C@H]1CCN(c2nccc(Nc3cc(C4CC4)[nH]n3)n2)C1` [Compound 11, (R)-2-(3-(Aminomethyl)pyrrolidin-1-yl)-N-(5-cyclopropyl-1H-pyrazol-3-yl)pyrimidin-4-amine], in assay [1], the Dmax at 3 µM was less than 20%. Moreover, in assay [2], the Dmax at 0.5 µM was less than 20%, the Dmax at 1 µM is 80 to 100%, the Dmax at 3 µM lay within 80 to 100% and the Dmax at 6 µM was 80 to 100%.

Take `CNCC1CCN(c2nccc(Nc3cc(C4CC4)[nH]n3)n2)CC1` [Compound 12, N-(5-Cyclopropyl-1H-pyrazol-3-yl)-2-(4-((methylamino)methyl)piperidin-1-yl)pyrimidin-4-amine]: in assay [1], the Dmax at 0.5 µM is less than 20%, the Dmax at 1 µM is less than 20%, the Dmax at 3 µM was 50 to 79% and the Dmax at 6 µM fell in the range of 80 to 100%. Further, in assay [2], the Dmax at 3 µM lay in the range of 20 to 49% and the Dmax at 6 µM was in the range of 50 to 79%.

Take `CNCC12CC(C1)N(c1nccc(Nc3cc(C4CC4)[nH]n3)n1)C2` [Compound 14, N-(5-cyclopropyl-1H-pyrazol-3-yl)-2-(4-((methylamino)methyl)-2-azabicyclo[2.1.1]hexan-2-yl)pyrimidin-4-amine]: in assay [1], the Dmax at 0.5 µM lay within 20 to 49%, the Dmax at 1 µM was 80 to 100%, the Dmax at 3 µM was 80 to 100% and the Dmax at 6 µM lay within 80 to 100%. Further, in assay [2], the Dmax at 0.5 µM is less than 20%, the Dmax at 1 µM is 20 to 49%, the Dmax at 3 µM is 20 to 49% and the Dmax at 6 µM lay in the range of 80 to 100%.
